One assay addresses T1, human Nav1.7 (Homo sapiens, UniProt Q15858).
T1 construct: expressed in transfected cells; host or cells: HEK 293
Description: IonWorks Quattro automated patch-clamp, inactivated state block of Nav1.7. As to conditions: channels stably expressed in HEK 293 cells; double-pulse protocol, inactivated state block; read-out: potency for the Nav 1.7 sodium ion channel (IC50, as measured by IonWorks). The class given is cell-based. The gist of the method:
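HEK293 stable lines, IonWorks PPC patch clamp (nystatin/amphotericin access); double-pulse protocol giving ~50% inactivation: holding −100 mV (Nav1.7) or −110 mV (Nav1.5), 1000 ms prepulse to −10 or −30 mV, 10 ms repolarization, 10 ms test pulse. Peak current inhibition versus concentration fitted to Hill equation for IC50.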
Background: The patch-clamp technique gives a direct electrical read-out from membranes.

For the next assay, the target named is T2, human Nav1.5 (Homo sapiens, UniProt Q14524).
T2 construct: expressed in transfected cells; host or cells: HEK 293
T2 sequence (Q14524 whole entry): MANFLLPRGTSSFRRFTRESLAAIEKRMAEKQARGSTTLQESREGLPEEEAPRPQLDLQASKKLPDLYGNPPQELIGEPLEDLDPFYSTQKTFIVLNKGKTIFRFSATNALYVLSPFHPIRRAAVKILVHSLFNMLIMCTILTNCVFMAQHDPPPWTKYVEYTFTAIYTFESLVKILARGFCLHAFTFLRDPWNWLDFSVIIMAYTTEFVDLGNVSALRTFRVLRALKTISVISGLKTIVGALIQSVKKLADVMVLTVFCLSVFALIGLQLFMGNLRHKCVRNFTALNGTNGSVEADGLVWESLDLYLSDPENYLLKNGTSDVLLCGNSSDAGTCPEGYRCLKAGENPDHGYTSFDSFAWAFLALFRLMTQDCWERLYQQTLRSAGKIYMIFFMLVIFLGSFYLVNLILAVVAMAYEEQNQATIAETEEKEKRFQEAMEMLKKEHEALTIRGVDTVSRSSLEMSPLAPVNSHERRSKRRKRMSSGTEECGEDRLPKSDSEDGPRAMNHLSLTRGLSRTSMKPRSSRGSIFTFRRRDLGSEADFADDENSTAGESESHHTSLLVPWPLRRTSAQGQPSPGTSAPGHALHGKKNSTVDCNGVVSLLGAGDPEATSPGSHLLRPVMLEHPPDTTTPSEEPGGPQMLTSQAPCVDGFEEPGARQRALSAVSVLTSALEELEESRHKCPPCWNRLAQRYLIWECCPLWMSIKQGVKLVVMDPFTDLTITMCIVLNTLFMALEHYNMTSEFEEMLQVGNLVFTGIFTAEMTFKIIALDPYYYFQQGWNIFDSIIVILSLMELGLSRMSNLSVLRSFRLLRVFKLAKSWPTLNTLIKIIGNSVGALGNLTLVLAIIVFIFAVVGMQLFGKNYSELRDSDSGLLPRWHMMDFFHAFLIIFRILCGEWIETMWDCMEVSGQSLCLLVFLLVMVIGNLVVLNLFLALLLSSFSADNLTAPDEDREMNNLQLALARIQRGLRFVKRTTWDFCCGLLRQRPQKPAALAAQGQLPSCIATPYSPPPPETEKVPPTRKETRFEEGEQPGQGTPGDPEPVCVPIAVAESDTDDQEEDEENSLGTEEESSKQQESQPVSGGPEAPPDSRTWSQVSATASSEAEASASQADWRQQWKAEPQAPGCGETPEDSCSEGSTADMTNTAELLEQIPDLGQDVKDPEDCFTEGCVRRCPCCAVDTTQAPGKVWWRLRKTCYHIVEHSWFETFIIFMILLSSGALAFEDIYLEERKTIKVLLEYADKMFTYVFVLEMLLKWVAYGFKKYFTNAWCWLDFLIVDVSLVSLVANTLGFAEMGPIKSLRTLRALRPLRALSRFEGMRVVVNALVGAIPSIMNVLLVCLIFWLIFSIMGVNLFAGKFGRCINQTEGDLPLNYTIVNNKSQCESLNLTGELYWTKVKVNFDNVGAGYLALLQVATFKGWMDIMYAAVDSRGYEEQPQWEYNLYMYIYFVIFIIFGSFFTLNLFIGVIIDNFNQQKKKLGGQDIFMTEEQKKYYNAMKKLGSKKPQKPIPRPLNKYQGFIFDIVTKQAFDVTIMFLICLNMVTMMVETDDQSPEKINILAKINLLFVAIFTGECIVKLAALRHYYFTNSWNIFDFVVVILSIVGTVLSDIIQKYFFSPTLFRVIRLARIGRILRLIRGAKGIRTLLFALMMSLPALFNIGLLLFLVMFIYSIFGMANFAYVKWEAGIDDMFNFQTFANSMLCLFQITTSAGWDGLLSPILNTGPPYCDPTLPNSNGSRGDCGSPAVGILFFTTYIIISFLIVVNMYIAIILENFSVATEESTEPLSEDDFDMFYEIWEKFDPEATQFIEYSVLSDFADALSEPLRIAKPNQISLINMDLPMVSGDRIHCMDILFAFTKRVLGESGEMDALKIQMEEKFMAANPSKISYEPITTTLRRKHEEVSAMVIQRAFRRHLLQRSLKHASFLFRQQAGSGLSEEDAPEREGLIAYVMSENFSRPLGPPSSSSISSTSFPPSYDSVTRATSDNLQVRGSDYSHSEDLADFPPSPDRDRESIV
Description: IonWorks Quattro automated patch-clamp, Nav1.5 (selectivity against Nav1.7). The class given is cell-based. As to conditions: IonWorks measurement, HEK 293 cells, inactivated state block.

The text below walks through data of patent US10519147B2 (Merck Sharp & Dohme Corp., priority 2015, dated 2019).

Structures are written as SMILES.

A word on the IC50: it is the concentration that gives 50% inhibition.

T1 sequence (Q15858 whole entry): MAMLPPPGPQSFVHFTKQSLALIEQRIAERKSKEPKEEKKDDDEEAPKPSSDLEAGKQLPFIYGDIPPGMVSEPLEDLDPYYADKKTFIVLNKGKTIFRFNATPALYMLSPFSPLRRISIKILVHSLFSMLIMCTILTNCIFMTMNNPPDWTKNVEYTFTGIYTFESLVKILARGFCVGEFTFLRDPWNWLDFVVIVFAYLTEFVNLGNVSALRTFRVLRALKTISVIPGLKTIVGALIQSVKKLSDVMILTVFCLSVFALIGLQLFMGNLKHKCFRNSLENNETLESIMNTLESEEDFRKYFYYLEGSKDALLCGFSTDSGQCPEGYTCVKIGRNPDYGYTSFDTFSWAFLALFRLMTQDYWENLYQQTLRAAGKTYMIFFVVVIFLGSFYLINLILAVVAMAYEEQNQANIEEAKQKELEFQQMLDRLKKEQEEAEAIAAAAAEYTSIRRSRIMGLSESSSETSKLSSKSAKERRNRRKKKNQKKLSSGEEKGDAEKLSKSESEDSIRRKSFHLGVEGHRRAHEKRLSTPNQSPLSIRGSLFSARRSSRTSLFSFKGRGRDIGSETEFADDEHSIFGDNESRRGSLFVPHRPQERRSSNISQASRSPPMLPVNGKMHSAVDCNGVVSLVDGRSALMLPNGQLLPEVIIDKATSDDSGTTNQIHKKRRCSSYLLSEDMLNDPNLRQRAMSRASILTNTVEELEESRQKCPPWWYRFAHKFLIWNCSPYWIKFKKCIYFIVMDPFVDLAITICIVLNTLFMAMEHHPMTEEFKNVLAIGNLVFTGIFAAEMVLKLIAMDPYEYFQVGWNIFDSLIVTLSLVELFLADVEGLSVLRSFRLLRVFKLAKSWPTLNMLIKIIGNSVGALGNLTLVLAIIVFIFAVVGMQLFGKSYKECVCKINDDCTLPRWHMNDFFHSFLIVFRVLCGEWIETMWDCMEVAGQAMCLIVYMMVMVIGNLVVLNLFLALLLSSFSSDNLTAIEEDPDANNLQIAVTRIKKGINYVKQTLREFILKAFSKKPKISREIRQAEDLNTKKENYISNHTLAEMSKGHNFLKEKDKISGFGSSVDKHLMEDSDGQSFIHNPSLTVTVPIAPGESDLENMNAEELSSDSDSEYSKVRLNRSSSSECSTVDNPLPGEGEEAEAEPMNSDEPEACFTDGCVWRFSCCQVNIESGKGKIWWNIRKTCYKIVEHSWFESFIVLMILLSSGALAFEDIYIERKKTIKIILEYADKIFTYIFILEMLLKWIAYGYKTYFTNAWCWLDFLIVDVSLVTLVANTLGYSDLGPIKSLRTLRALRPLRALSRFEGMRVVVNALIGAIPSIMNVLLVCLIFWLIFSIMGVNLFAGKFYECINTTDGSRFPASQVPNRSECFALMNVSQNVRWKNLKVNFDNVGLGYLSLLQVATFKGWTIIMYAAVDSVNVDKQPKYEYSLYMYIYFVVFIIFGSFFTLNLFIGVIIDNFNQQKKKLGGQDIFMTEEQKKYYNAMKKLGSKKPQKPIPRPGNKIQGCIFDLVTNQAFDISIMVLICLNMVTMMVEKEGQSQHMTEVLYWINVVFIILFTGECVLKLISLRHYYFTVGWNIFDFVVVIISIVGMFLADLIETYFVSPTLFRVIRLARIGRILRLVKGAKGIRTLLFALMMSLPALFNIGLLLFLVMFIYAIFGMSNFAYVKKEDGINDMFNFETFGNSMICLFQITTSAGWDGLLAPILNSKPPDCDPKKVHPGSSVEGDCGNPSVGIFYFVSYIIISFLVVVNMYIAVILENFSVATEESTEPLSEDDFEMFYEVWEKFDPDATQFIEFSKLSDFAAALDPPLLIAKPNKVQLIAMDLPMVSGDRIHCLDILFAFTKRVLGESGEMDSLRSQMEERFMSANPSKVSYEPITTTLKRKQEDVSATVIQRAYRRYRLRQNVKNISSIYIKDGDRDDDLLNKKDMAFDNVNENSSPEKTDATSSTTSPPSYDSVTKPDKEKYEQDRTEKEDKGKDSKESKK

With `C[C@H](N)CNCCCCNc1cc(F)c(S(=O)(=O)Nc2ncns2)cc1Br` [Ex 16-80, 4-[4-[[(2S)-2-aminopropyl]amino]butylamino]-5-bromo-2-fluoro-N-(1,2,4-thiadiazol-5-yl)benzenesulfonamide], the IC50 at human Nav1.7 amounted to 3.1 nM. Besides, on human Nav1.5, the “ratio of Nav 1.7 potency:Nav 1.5 potency” value was greater than 10600.
With `O=S(=O)(Nc1ncns1)c1cc(F)c(NCCCCNC[C@@H]2CCCN2)cc1F` [Ex 7-7, 2,5-difluoro-4-[(4-{[(2S)-pyrrolidin-2-ylmethyl]amino}butyl)amino]-N-1,2,4-thiadiazol-5-ylbenzenesulfonamide], the IC50 at human Nav1.7 came to 80 nM. Also, the “ratio of Nav 1.7 potency:Nav 1.5 potency” value at human Nav1.5 was greater than 410.
The like results for `O=S(=O)(Nc1ncns1)c1cc(Cl)c(NCCCCNC[C@H]2CCCN2)cc1F` [Ex 16-17, 5-chloro-2-fluoro-4-[(4-{[(2R)-pyrrolidin-2-yl-methyl]amino}butyl)amino]-N-1,2,4-thiadiazol-5-yl-benzenesulfonamide] were, in that order, 8.3 nM and greater than 3980.
Turning to `O=S(=O)(Nc1nccs1)c1cc(Cl)c(NCCCCNC[C@@H]2CCCCN2)cc1F` [Ex 1-04, 5-chloro-2-fluoro-4-[(4-{[(2S)-piperidin-2-ylmethyl]amino}butyl)amino]-N-1,3-thiazol-2-yl-benzenesulfonamide], the IC50 on human Nav1.7 was determined as 9.6 nM. In addition, the “ratio of Nav 1.7 potency:Nav 1.5 potency” value is reported as greater than 3440 on human Nav1.5 and 3440 at human Nav1.5 (listed as Ex1-04).
For `O=S(=O)(Nc1ncc(F)s1)c1cc(Cl)c(NCCCCNC[C@H]2CCCCN2)cc1F` [Ex 16-16, 5-chloro-2-fluoro-N-(5-fluoro-1,3-thiazol-2-yl)-4-[(4-{[(2R)-piperidin-2-yl-methyl]amino}butyl)-amino] benzenesulfonamide], the half-inhibitory concentration (IC50) at human Nav1.7 worked out at 8.7 nM. Also, at human Nav1.5, the “ratio of Nav 1.7 potency:Nav 1.5 potency” value is listed as greater than 3800.
Consider `O=S(=O)(Nc1ncc(F)s1)c1cc(Cl)c(NCCCCNCC[C@@H]2CCCN2)cc1F` [Ex 16-24, 5-chloro-2-fluoro-N-(5-fluoro-1,3-thiazol-2-yl)-4-{[4-({2-[(2S)-pyrrolidin-2-yl]ethyl}amino)butyl]amino} benzenesulfonamide], for which the IC50 on human Nav1.7 amounted to 21 nM. Also, at human Nav1.5, the “ratio of Nav 1.7 potency:Nav 1.5 potency” value was greater than 1571.
Consider `N[C@@H]1CCC[C@H]1NCCCCNc1cc(F)c(S(=O)(=O)Nc2ncc(F)s2)cc1Cl` [Ex 16-05, 4-[(4-{[(1R,2R)-2-aminocyclopentyl]-amino}-butyl)-amino]-5-chloro-2-fluoro-N-(5-fluoro-1,3-thiazol-2-yl)-benzene-sulfonamide], for which the IC50 at human Nav1.7 was 5 nM. At human Nav1.5, the “ratio of Nav 1.7 potency:Nav 1.5 potency” value is given as 3400.
On to `NCC1(NCCCCNc2cc(F)c(S(=O)(=O)Nc3ncns3)cc2Br)CC1` [Ex 16-98, 4-[4-[[1-(aminomethyl)cyclopropyl]amino]butylamino]-5-bromo-2-fluoro-N-(1,2,4-thiadiazol-5-yl) benzenesulfonamide], for which the 50% inhibitory concentration (IC50) at human Nav1.7 was 8.6 nM. In addition, the “ratio of Nav 1.7 potency:Nav 1.5 potency” value on human Nav1.5 is greater than 3840.
Turning to `N[C@H]1CCC[C@@H]1NCCCCNc1cc(F)c(S(=O)(=O)Nc2ncns2)cc1Cl` [Ex 16-70, 4-[(4-{[(1S,2S)-2-aminocyclopentyl]amino}butyl)amino]-5-chloro-2-fluoro-N-1,2,4-thiadiazol-5-ylbenzenesulfonamide], the IC50 at human Nav1.7 is 8.5 nM. The “ratio of Nav 1.7 potency:Nav 1.5 potency” value on human Nav1.5 was greater than 2710.
In the case of `O=S(=O)(Nc1ncc(F)s1)c1cc(Cl)c(NCCCCNC2CNC2)cc1F` [Ex 16-22, 4-{[4-(azetidin-3-ylamino)-butyl]amino}-5-chloro-2-fluoro-N-(5-fluoro-1,3-thiazol-2-yl)benzene-sulfonamide], the IC50 on human Nav1.7 stood at 38 nM. Also, on human Nav1.5, the “ratio of Nav 1.7 potency:Nav 1.5 potency” value is greater than 868.
`NCCCNCCCCNc1cc(F)c(S(=O)(=O)Nc2ncns2)cc1Cl` [Ex 16-32, 4-({4-[(3-aminopropyl)-amino]butyl}amino)-5-chloro-2-fluoro-N-1,2,4-thiadiazol-5-ylbenzene-sulfonamide]: at human Nav1.7, the IC50 was determined as 49 nM. The “ratio of Nav 1.7 potency:Nav 1.5 potency” value at human Nav1.5 is on record as greater than 673.
As to `O=S(=O)(Nc1ncns1)c1cc(Br)c(NCCCCNC[C@@H]2CCN2)cc1F` [Ex 16-76, 4-[(4-{[(2S)-azetidin-2-ylmethyl]amino}butyl)amino]-5-bromo-2-fluoro-N-1,2,4-thiadiazol-5-ylbenzenesulfonamide], the IC50 on human Nav1.7 amounted to 17 nM. Further, the “ratio of Nav 1.7 potency:Nav 1.5 potency” value at human Nav1.5 is reported as greater than 1940.
As for `NCC1(NCCCCNc2cc(F)c(S(=O)(=O)Nc3ncc(F)s3)cc2Cl)CCC1` [Ex 16-62, 4-[(4-{[1-(aminomethyl)cyclobutyl]amino}butyl)amino]-5-chloro-2-fluoro-N-(5-fluoro-1,3-thiazol-2-yl)benzenesulfonamide], the IC50 on human Nav1.7 came to 36 nM. Further, the “ratio of Nav 1.7 potency:Nav 1.5 potency” value on human Nav1.5 is greater than 917.
Consider `CCNCCNCCCCNc1cc(F)c(S(=O)(=O)Nc2ncns2)cc1Br` [Ex 16-92, 5-bromo-4-[4-[2-(ethylamino)ethylamino]butylamino]-2-fluoro-N-(1,2,4-thiadiazol-5-yl)benzenesulfonamide], for which the IC50 on human Nav1.7 is 3.4 nM. In addition, the “ratio of Nav 1.7 potency:Nav 1.5 potency” value at human Nav1.5 is greater than 9700.
The like results for `O=S(=O)(Nc1nccs1)c1cc(Cl)c(NCCCCNC[C@@H]2CCN2)cc1F` [Ex 16-74, 4-[(4-{[(2S)-azetidin-2-ylmethyl]amino}butyl)amino]-5-chloro-2-fluoro-N-1,3-thiazol-2-ylbenzenesulfonamide] were, in that order, 77 nM and greater than 429.
